# Measurements taken from US9658208B2, “Methods and G proteins for screening and identifying ligands of G protein-coupled receptors” (Fred Hutchinson Cancer Research Center, priority 2011, dated 2017).
# Tested on: odorant receptor (OR) that recognizes vanillin and eugenol (Rho20-eugenol receptor)
# Assay: CRE-SEAP reporter gene assay, Gαs-coupled odorant receptor
# Type: cell-based
# Conditions: HEK-293 cells, 500 uM eugenol, 48 hours
# Text: A high throughput screening assay was investigated for Gαs-coupled GPCRs based on the CRE-SEAP reporter gene construct, in which five tandem cAMP response elements […] lie upstream of a gene encoding secreted alkaline phosphatase (SEAP) (Durocher et al., Anal Biochem 284: 316-326 (2000)). To ensure the general utility of the CRE-SEAP reporter gene construct for the detection of Gαs-coupled GPCR activation, HEK-293 cells were cotransfected with the CRE-SEAP construct together with expression vectors encoding either a β2-adrenergic receptor or an odorant receptor (OR) that recognizes vanillin and eugenol. Both receptors are GPCRs that couple to Gαs subunits. The HEK-293 cells expressing the β2-adrenergic receptor were grown for 48 hours in the presence or absence of 10 uM isoproterenol. The HEK-293 cells expressing the OR were grown for 48 hours in the presence of 500 uM eugenol. After growing in the presence of the ligands, the cells were assayed for SEAP activity using a fluorescent alkaline phosphatase substrate and a fluorescence plate reader. […]
# Following transfection, the cells were maintained for 48 hours in 200 ul serum free media containing either 10 uM isoproterenol (Sigma) or 500 uM eugenol (Sigma). […] Fluorescence was then measured using a CytoFluor 4000 multi well plate reader (Applied Biosystems).
smiles,measurement,value
C=CCc1ccc(O)c(OC)c1 [eugenol],SEAP activity,increase in SEAP activity
